According to PubChem BioAssay AID248 (DTP/NCI, 2004):
Values joined by “and” are separate entries in the source; they are usually repeats but may differ in a detail not shown here. Equal entries are not always repeated. Toxic doses and inconclusive results are not listed. Cut-off read from the data, not from the text of the source: active = T/C of 150% or more; inactive = T/C below 125%.

Test system: L1210 leukemia ip in BDF1 mice, survival T/C
Assay: NCI In Vivo Anticancer Drug Screen. Data for tumor model L1210 Leukemia (intraperitoneal) in B6D2F1 (BDF1) mice
Conditions: endpoint: mean survival time, higher = longer survival
Procedure, shortened: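 Antitumor effect is assessed in tumor-bearing animals. Survival in the compound arm is compared with a vehicle-dosed control arm and expressed as their quotient.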

[1] = dose: 50.0 mg/kg/injection, schedule: Q01DX009 (ip), vehicle: saline with Tween-80
[2] = dose: 100.0 mg/kg/injection, schedule: Q01DX009 (ip), vehicle: saline with Tween-80
[3] = dose: 200.0 mg/kg/injection, schedule: Q01DX009 (ip), vehicle: saline with Tween-80
[4] = dose: 100.0 mg/kg/injection, schedule: Q01DX001 (ip), vehicle: Klucel (hydroxypropylcellulose) (HPC)
[5] = dose: 200.0 mg/kg/injection, schedule: Q01DX001 (ip), vehicle: Klucel (hydroxypropylcellulose) (HPC)
[6] = dose: 400.0 mg/kg/injection, schedule: Q01DX001 (ip), vehicle: Klucel (hydroxypropylcellulose) (HPC)
[7] = dose: 25.0 mg/kg/injection, schedule: Q01DX009 (ip), vehicle: Klucel (hydroxypropylcellulose) (HPC)
[8] = dose: 50.0 mg/kg/injection, schedule: Q01DX009 (ip), vehicle: Klucel (hydroxypropylcellulose) (HPC)
[9] = dose: 100.0 mg/kg/injection, schedule: Q01DX009 (ip), vehicle: Klucel (hydroxypropylcellulose) (HPC)
[10] = dose: 100.0 mg/kg/injection, schedule: Q01DX001 (ip), vehicle: carboxymethylcellulose (CMC)
[11] = dose: 200.0 mg/kg/injection, schedule: Q01DX001 (ip), vehicle: carboxymethylcellulose (CMC)
[12] = dose: 400.0 mg/kg/injection, schedule: Q01DX001 (ip), vehicle: carboxymethylcellulose (CMC)
[13] = dose: 100.0 mg/kg/injection, schedule: Q04DX003 (ip), vehicle: Klucel (hydroxypropylcellulose) (HPC)
[14] = dose: 200.0 mg/kg/injection, schedule: Q04DX003 (ip), vehicle: Klucel (hydroxypropylcellulose) (HPC)
[15] = dose: 400.0 mg/kg/injection, schedule: Q04DX003 (ip), vehicle: Klucel (hydroxypropylcellulose) (HPC)
[16] = dose: 75.0 mg/kg/injection, schedule: Q01DX001 (ip), vehicle: other
[17] = dose: 150.0 mg/kg/injection, schedule: Q01DX001 (ip), vehicle: other
[18] = dose: 300.0 mg/kg/injection, schedule: Q01DX001 (ip), vehicle: other

Measured: T/C

O=C1CCC(CCl)O1 (stereo not given)
inactive: dose: 75.0 mg/kg/injection, schedule: Q01DX009 (ip), vehicle: other 100 % of control | dose: 100.0 mg/kg/injection, schedule: Q04DX002 (ip), vehicle: other 93 % of control | dose: 150.0 mg/kg/injection, schedule: Q01DX009 (ip), vehicle: other 104 % of control | dose: 200.0 mg/kg/injection, schedule: Q04DX002 (ip), vehicle: other 93 % of control | dose: 300.0 mg/kg/injection, schedule: Q01DX009 (ip), vehicle: other 96 % of control | dose: 400.0 mg/kg/injection, schedule: Q04DX002 (ip), vehicle: other 110 % of control

O=C(O)C1=CC2(c3ccccc3)C(=O)C1(c1ccccc1)C1=C2c2cccc3cccc1c23 (stereo not given)
inactive: [1] 93 % of control | [2] 93 % of control | [3] 93 % of control

CC[CH2][Sn]([CH2]C)([c]1ccccc1)[c]1ccccc1
inactive: [4] 97 % of control | [5] 106 % of control | [6] 101 % of control

Cc1nc(N)nc(Cl)c1CCCc1ccccc1
inactive: [4] 97 % of control | [5] 102 % of control | [6] 107 % of control

CCOC(=O)C1N=C(c2ccccc2)OC1c1ccccc1 (stereo not given)
inactive: [1] 94 % of control | [2] 94 % of control | [3] 102 % of control

Nc1nc(N)c(CCCOc2ccc(C(=O)O)cc2)c(N)n1
inactive: dose: 12.5 mg/kg/injection, schedule: Q01DX009 (ip), vehicle: Klucel (hydroxypropylcellulose) (HPC) 95 % of control | [7] 100 % of control | [8] 93 % of control

CCCCOC(=O)OCNC(=O)Oc1ccc(Br)cc1Br
inactive: [9] 92 % of control | dose: 200.0 mg/kg/injection, schedule: Q01DX009 (ip), vehicle: Klucel (hydroxypropylcellulose) (HPC) 94 % of control | dose: 400.0 mg/kg/injection, schedule: Q01DX009 (ip), vehicle: Klucel (hydroxypropylcellulose) (HPC) 101 % of control

NC(=S)N/N=C\c1csc2ccccc12
inactive: [10] 92 % of control | dose: 100.0 mg/kg/injection, schedule: Q01DX001 (ip), vehicle: saline 96 % of control | [11] 92 % of control | dose: 200.0 mg/kg/injection, schedule: Q01DX001 (ip), vehicle: saline 107 % of control | [12] 95 % of control | dose: 400.0 mg/kg/injection, schedule: Q01DX001 (ip), vehicle: saline 94 % of control

O=C1OC(c2ccccc2)CC12CCCCC2 (stereo not given)
inactive: [13] 102 % of control | [14] 100 % of control | [15] 100 % of control

CC(C)(C)CC(C)(C)c1ccc(OCCOCCOc2ccc([N+](=O)[O-])cc2)cc1
inactive: dose: 100.0 mg/kg/injection, schedule: Q01DX009 (ip), vehicle: saline sonified 94 % of control | dose: 200.0 mg/kg/injection, schedule: Q01DX009 (ip), vehicle: saline sonified 96 % of control | dose: 400.0 mg/kg/injection, schedule: Q01DX009 (ip), vehicle: saline sonified 94 % of control

CCOC(=O)CCC(NC(=O)c1ccc(NCc2nnc3nc(N)n4nnnc4c3n2)cc1)C(=O)OCC (stereo not given)
inactive: dose: 25.0 mg/kg/injection, schedule: Q01DX001 (ip), vehicle: saline with Tween-80 96 % of control | dose: 50.0 mg/kg/injection, schedule: Q01DX001 (ip), vehicle: saline with Tween-80 109 % of control | dose: 100.0 mg/kg/injection, schedule: Q01DX001 (ip), vehicle: saline with Tween-80 100 % of control

CCCC(=O)Nc1cc([N+](=O)[O-])ccc1O
inactive: [1] 97 % of control and 106 % of control | dose: 100.0 mg/kg/injection, schedule: Q04DX002 (ip), vehicle: saline with Tween-80 93 % of control and 95 % of control | dose: 200.0 mg/kg/injection, schedule: Q04DX002 (ip), vehicle: saline with Tween-80 95 % of control and 97 % of control | dose: 400.0 mg/kg/injection, schedule: Q04DX002 (ip), vehicle: saline with Tween-80 95 % of control and 92 % of control

c1cnc2c(c1)Oc1cccnc1N2
inactive: dose: 50.0 mg/kg/injection, schedule: Q01DX001 (ip), vehicle: Klucel (hydroxypropylcellulose) (HPC) 98 % of control | [4] 92 % of control | [5] 90 % of control

O=C(O)C1CC2c3ccccc3C1c1ccccc12 (stereo not given)
inactive: [7] 90 % of control | [8] 97 % of control | [9] 104 % of control | [13] 90 % of control

COC(=O)C(C(=O)OC)C(Br)C(Br)C(Br)c1ccccc1 (stereo not given)
inactive: [16] 91 % of control | [17] 94 % of control | [18] 96 % of control

CC[C@H](c1ccc(O)cc1)[C@@H](CC)c1ccc(O)cc1
inactive: dose: 62.5 mg/kg/injection, schedule: Q01DX010 (sc), vehicle: steriod suspending solution 104 % of control | dose: 125.0 mg/kg/injection, schedule: Q01DX010 (sc), vehicle: steriod suspending solution 95 % of control | dose: 250.0 mg/kg/injection, schedule: Q01DX010 (sc), vehicle: steriod suspending solution 104 % of control

CCC1(CCCCCBr)OCCO1
inactive: dose: 100.0 mg/kg/injection, schedule: Q04DX002 (ip), vehicle: Klucel (hydroxypropylcellulose) (HPC) 101 % of control | dose: 200.0 mg/kg/injection, schedule: Q04DX002 (ip), vehicle: Klucel (hydroxypropylcellulose) (HPC) 108 % of control | dose: 400.0 mg/kg/injection, schedule: Q04DX002 (ip), vehicle: Klucel (hydroxypropylcellulose) (HPC) 104 % of control

CCOC(=O)C(=CNc1ccccc1OC)C(=O)OCC
inactive: [1] 95 % of control | [2] 102 % of control | dose: 100.0 mg/kg/injection, schedule: Q04DX003 (ip), vehicle: saline with Tween-80 98 % of control | [3] 106 % of control | dose: 200.0 mg/kg/injection, schedule: Q04DX003 (ip), vehicle: saline with Tween-80 110 % of control | dose: 400.0 mg/kg/injection, schedule: Q01DX009 (ip), vehicle: saline with Tween-80 98 % of control | dose: 400.0 mg/kg/injection, schedule: Q04DX003 (ip), vehicle: saline with Tween-80 102 % of control

O=P1(c2ccccc2)C=C(Cl)CC1 (stereo not given)
inactive: dose: 75.0 mg/kg/injection, schedule: Q01DX001 (ip), vehicle: saline 96 % of control | dose: 150.0 mg/kg/injection, schedule: Q01DX001 (ip), vehicle: saline 107 % of control

[N-]=[N+]=CS(=O)(=O)c1ccccc1-c1ccccc1
inactive: [13] 104 % of control | [14] 103 % of control | [15] 95 % of control

Cn1c(=O)[nH]c(=O)c2c1[nH]c(=O)c(=O)n2C
inactive: dose: 50.0 mg/kg/injection, schedule: Q01DX001 (ip), vehicle: carboxymethylcellulose (CMC) 101 % of control | [10] 98 % of control | [11] 95 % of control | [12] 106 % of control

CCS(=O)(=O)/C=C/c1ccc(Cl)c(Cl)c1
inactive: [13] 110 % of control | [14] 97 % of control | [15] 107 % of control

O=C1CC2C3Nc4ccccc4C3CCN2C2=C1CC(OC(=O)c1ccccc1)CC2 (stereo not given)
inactive: dose: 12.5 mg/kg/injection, schedule: Q01DX009 (ip), vehicle: saline sonified 96 % of control | dose: 25.0 mg/kg/injection, schedule: Q01DX009 (ip), vehicle: saline sonified 98 % of control | dose: 50.0 mg/kg/injection, schedule: Q01DX009 (ip), vehicle: saline sonified 103 % of control | [13] 95 % of control

O=C1C[C@H]2CCCC[C@@H]2O1
inactive: [16] 107 % of control | [17] 105 % of control | [18] 102 % of control
